Test systems include HCC 2998; UO-31; OVCAR-4; SK-MEL-5; OVCAR-8; UACC-62; SN12C; NCI-H522; EKVX; SW-620; A549; COLO 205; SF-268; SNB-19; NCI-H460; OVCAR-3; U-251; SF-295; NCI-H226; Malme-3M.
What all share (assay): DTP human tumour cell line panel, 48 h

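Exposure lasted 48 hours, with cells grown in 96-well plates and compounds tested at five concentrations. Abbreviation: GI50, concentration required for 50% inhibition of growth.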 The source made the active and inactive calls. No stated cut-off is given here; in the data, active = GI50 up to about 1.1 µM and inactive = higher. A value given as a limit tells only on which side of the number the result lay.

As for `N#CCCN(CCC#N)c1ccc(C(=N/c2ccc(Cl)cc2)/N=N/c2ccc(Cl)cc2)cc1`, the GI50 was 12.8 µM (inactive) in the experiment with HCC 2998; 15.2 µM (inactive) with UO-31; 17.9 µM (inactive) with OVCAR-4; 10.1 µM (inactive) with SK-MEL-5; 17.6 µM (inactive) in the experiment on OVCAR-8; 10.9 µM (inactive) in the experiment on UACC-62. The GI50 is 17.7 µM (inactive) in the experiment with SN12C; 17 µM (inactive) in the experiment on NCI-H522; 18.7 µM (inactive) in the experiment on EKVX; 17.7 µM (inactive) in the experiment on SW-620; 16.9 µM (inactive) in the experiment on A549; 16.2 µM (inactive) in the experiment with COLO 205. Further, the GI50 in the experiment with SF-268 was 15.7 µM (inactive); with SNB-19 it was 24.2 µM (inactive); in the experiment on NCI-H460, 13.4 µM (inactive); with OVCAR-3, 16.7 µM (inactive); in the experiment on U-251, 19 µM (inactive); in the experiment with SF-295, 10.7 µM (inactive). Further, in the experiment on NCI-H226, the GI50 was 17.3 µM (inactive).
Consider `CC(=O)C1=C(C)NC(=C(C#N)C#N)C(C#N)=C1`, for which the GI50 with HCC 2998 was > 100 µM (inactive); in the experiment with UO-31, > 100 µM (inactive); in the experiment on Malme-3M, > 100 µM (inactive); in the experiment with OVCAR-4, 3.81 µM (inactive); in the experiment on SK-MEL-5, > 100 µM (inactive); in the experiment on OVCAR-8 it was > 100 µM (inactive). For the same molecule, the GI50 in the experiment on UACC-62, in the experiment with SN12C, in the experiment with NCI-H522, with EKVX, in the experiment with SW-620 and in the experiment with A549 was > 100 µM (inactive) in each case. The GI50 in the experiment on COLO 205, with SF-268, in the experiment on SNB-19, in the experiment on NCI-H460, with U-251 and in the experiment on NCI-H226 was > 100 µM (inactive) each time.
Take `Nc1ncnc2c1cnn2Cc1ccc(Cl)cc1`: the GI50 in the experiment on HCC 2998 was > 100 µM (inactive); in the experiment on UO-31, 78.5 µM (inactive); with OVCAR-4, > 100 µM (inactive); in the experiment with SK-MEL-5, > 100 µM (inactive); in the experiment with OVCAR-8, > 100 µM (inactive); with SN12C, > 100 µM (inactive). In addition, the GI50 was 92 µM (inactive) in the experiment with NCI-H522; > 100 µM (inactive) with SW-620; > 100 µM (inactive) in the experiment with A549; > 100 µM (inactive) with COLO 205; > 100 µM (inactive) in the experiment with SF-268; > 100 µM (inactive) in the experiment on SNB-19. Moreover, the GI50 with NCI-H460, in the experiment with OVCAR-3, with U-251, in the experiment on SF-295 and with NCI-H226 was > 100 µM (inactive) throughout.
Turning to `O=S(=O)(N=S(c1ccccc1)c1ccccc1)c1ccccc1`, the GI50 in the experiment on UO-31, with Malme-3M, in the experiment with OVCAR-8, in the experiment with SN12C, with EKVX and in the experiment on SW-620 was > 100 µM (inactive) throughout. In addition, the GI50 in the experiment on A549, in the experiment with COLO 205, in the experiment with SF-268, in the experiment with SNB-19, in the experiment on NCI-H460 and in the experiment with OVCAR-3 was > 100 µM (inactive) each time. The GI50 with U-251, with SF-295 and with NCI-H226 was > 100 µM (inactive) each time.
With `COC(=O)C1=C(C(=O)OC)C23CC1C1C(C(=O)OC)=C(C(=O)OC)C12C1C=CC3C2C(=O)OC(=O)C21` (centres undefined), the GI50 in the experiment on HCC 2998 was 66.7 µM (inactive); with UO-31, 84.9 µM (inactive); in the experiment on Malme-3M, 44.5 µM (inactive); in the experiment with OVCAR-4, 39.4 µM (inactive); with SK-MEL-5, 41.8 µM (inactive); in the experiment with OVCAR-8, 48.3 µM (inactive). Besides, the GI50 in the experiment on UACC-62 was 31.5 µM (inactive); in the experiment on SN12C, 91.4 µM (inactive); in the experiment on NCI-H522, 22.4 µM (inactive); with EKVX it was > 100 µM (inactive); in the experiment with SW-620, 37.5 µM (inactive); with A549 it was 49 µM (inactive). Moreover, the GI50 in the experiment on COLO 205 is 28.3 µM (inactive); in the experiment with SF-268, 48.3 µM (inactive); in the experiment on SNB-19, 62.1 µM (inactive); with NCI-H460, 34.7 µM (inactive); with OVCAR-3, 3.72 µM (inactive); in the experiment with U-251 it was 48.2 µM (inactive). The GI50 with SF-295 was 53 µM (inactive).
Turning to `O=S(O)CCCCCSSSCCCCCS(=O)O`, the GI50 in the experiment with HCC 2998 was > 100 µM (inactive); in the experiment on UO-31, 35.3 µM (inactive); in the experiment on Malme-3M, 6.5 µM (inactive); with OVCAR-4, 52 µM (inactive); in the experiment with UACC-62 it was 22.8 µM (inactive); in the experiment with SN12C it was 53.5 µM (inactive). Besides, the GI50 in the experiment on NCI-H522 was 24 µM (inactive); in the experiment with EKVX, > 100 µM (inactive); in the experiment on SF-268, 26.9 µM (inactive); with SNB-19, > 100 µM (inactive); in the experiment with NCI-H460 it was > 100 µM (inactive); in the experiment with OVCAR-3, 20.2 µM (inactive). The GI50 with U-251 was 54.5 µM (inactive).
On to `O=C(O)c1ccccc1CN1CCCC(C(=O)O)C1` (centres undefined), for which the GI50 in the experiment on UO-31, in the experiment on Malme-3M, with OVCAR-4, in the experiment on SK-MEL-5, with OVCAR-8 and in the experiment on UACC-62 was > 100 µM (inactive) in each case. For the same molecule, the GI50 in the experiment with SN12C, with NCI-H522, in the experiment with EKVX, in the experiment on SW-620, with A549 and with COLO 205 was > 100 µM (inactive) each time. For the same molecule, the GI50 with SF-268, in the experiment on SNB-19, with NCI-H460, in the experiment with OVCAR-3, in the experiment with U-251 and in the experiment on SF-295 was > 100 µM (inactive) each time. Further, in the experiment with NCI-H226, the GI50 was > 100 µM (inactive).
Consider `CCCCCCCCCCCCCCCCCCOP(=O)([O-])OCC[N+](C)(C)C` [OCTADECYLPHOSPHONOCHOLINE], for which the 50% growth inhibitory concentration (GI50) with HCC 2998 is 0.245 µM (active); in the experiment on UO-31, 1.13 µM (inactive); in the experiment with Malme-3M, 1.02 µM (active); in the experiment with SK-MEL-5, 1.42 µM (inactive); with OVCAR-8, 1.02 µM (active); in the experiment with UACC-62 it was 4.4 µM (inactive). Further, the GI50 was 0.502 µM (active) in the experiment with SN12C; 0.419 µM (active) in the experiment with NCI-H522; 2.14 µM (inactive) in the experiment on EKVX; 0.771 µM (active) with SW-620; 1.35 µM (inactive) in the experiment with A549; 0.146 µM (active) with COLO 205. Further, the concentration for 50% growth inhibition (GI50) was 0.807 µM (active) in the experiment with SF-268; 0.849 µM (active) in the experiment on SNB-19; 0.41 µM (active) with NCI-H460; 0.877 µM (active) in the experiment on OVCAR-3; 0.695 µM (active) in the experiment on U-251; 0.736 µM (active) in the experiment with SF-295. Also, the GI50 in the experiment with NCI-H226 was 0.787 µM (active).

Source of the values: ChEMBL document CHEMBL1201862, “PubChem BioAssay data set” (2004).
